# According to article PMC3024420 (PLoS ONE, 2011):
# Entries after “also recorded” stand apart in the source; their conditions may differ. Where no end group is shown, it is not given here.
# Tests used:
# [1] = target: prostate-specific antigen (PSA) (Homo sapiens, UniProt P07288)
# Experimental: (§1) All incubation sample tubes were pulsed briefly in a microcentrifuge, and immediately stored at −20°C. Samples were electrophoresed on mini-16% Tricine-SDS gels, and stained.
# (§2) Digested peptide fragments from protease incubations underwent MALDI-TOF/TOF MS/MS analysis using the Model Ultraflex III mass spectrometer (Bruker Daltonics, Billerica, MA, USA) equipped with LIFT capability. Samples were desalted using C18 ZipTips (Millipore, Bedford, MA, USA) and were analyzed in positive reflector mode. External calibration was performed using a mass standards kit for proteomics analyzer (Applied Biosystems). Samples also underwent analysis via nano-LC ESI-TOF MS/MS using the maXis ESI-Q-TOF (Bruker Daltonics) mass spectrometer online with the Dionex model U3000 nanobore HPLC [28]. Data were analyzed with the Sprot database using the Bruker ProteinScape program version 2.1 and Mascot program version 2.2 with enzyme setting to semiTrypsin.
# [2] = system: trypsin
# Experimental: as §1, §2
# [3] = target: matriptase (Homo sapiens, UniProt Q9Y5Y6)
# Chain of matriptase (Q9Y5Y6 whole entry): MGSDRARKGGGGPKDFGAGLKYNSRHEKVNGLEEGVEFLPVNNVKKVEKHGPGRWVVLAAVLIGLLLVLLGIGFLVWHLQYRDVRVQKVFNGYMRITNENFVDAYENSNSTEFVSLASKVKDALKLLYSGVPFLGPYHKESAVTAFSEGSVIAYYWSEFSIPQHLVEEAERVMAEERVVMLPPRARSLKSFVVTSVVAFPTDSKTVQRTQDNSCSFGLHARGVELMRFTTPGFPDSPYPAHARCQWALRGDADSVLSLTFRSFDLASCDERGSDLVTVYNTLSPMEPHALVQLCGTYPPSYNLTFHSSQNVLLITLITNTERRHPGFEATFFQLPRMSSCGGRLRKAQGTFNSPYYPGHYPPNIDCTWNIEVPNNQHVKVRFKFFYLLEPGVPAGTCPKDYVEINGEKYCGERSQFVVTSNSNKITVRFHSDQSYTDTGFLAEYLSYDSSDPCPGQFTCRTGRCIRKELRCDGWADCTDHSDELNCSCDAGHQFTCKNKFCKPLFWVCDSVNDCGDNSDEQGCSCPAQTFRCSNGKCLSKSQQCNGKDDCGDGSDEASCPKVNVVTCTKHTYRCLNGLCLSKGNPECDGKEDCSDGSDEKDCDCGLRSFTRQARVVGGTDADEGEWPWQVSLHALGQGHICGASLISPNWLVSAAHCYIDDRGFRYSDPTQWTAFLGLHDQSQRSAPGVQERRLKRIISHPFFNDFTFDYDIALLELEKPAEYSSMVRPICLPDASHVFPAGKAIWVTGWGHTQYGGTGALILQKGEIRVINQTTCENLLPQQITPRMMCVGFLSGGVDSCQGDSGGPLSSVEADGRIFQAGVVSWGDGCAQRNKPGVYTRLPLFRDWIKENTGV
# Experimental: as §1, §2
# [4] = target: prostasin (Homo sapiens, UniProt Q16651)
# Chain of prostasin (Q16651 33-343): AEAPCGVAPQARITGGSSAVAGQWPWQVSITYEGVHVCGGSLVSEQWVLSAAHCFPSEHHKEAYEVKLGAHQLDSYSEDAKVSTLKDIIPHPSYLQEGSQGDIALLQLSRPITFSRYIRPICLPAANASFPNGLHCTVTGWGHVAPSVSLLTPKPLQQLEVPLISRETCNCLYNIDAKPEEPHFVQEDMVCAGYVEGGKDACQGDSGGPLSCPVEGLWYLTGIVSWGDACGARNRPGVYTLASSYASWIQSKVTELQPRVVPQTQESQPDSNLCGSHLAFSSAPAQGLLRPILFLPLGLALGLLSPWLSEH
# Experimental: as §1, §2
# [5] = 300 rpm, 37°C, Tricine-SDS gel; for stability in SP containing protease inhibitor (PI) cocktail: SP spiked with broad spectrum PI cocktail, 1–24 h; for time to complete degradation / time to partial degradation: three volumes peptide (1 mg/ml) with one volume whole SP, Coomassie blue
# Experimental: as §1
# [6] = system: TZM-bl cells; experiment: MTT metabolic assay; assay type: cell-based; settings: cells treated for 24 h; peptides 35 µg/ml, SP 1%
# Experimental: (§3) All treated cells were lysed using a Bright Glo luciferase system (Promega, Madison, WI, USA), and the ability to prevent HIV-1 infection was measured as a percent reduction in luciferase (relative light units or RLU) compared to the positive viral control (media and virus only). Metabolic activity of the cells was verified by a tetrazolium-based (MTT) assay according to manufacturer's instructions (R&D Systems, Minneapolis, MN, USA), while cytotoxicity was measured using the standard trypan blue dye exclusion assay.
# [7] = system: PM1 cells; settings: 35 µg/ml with or without 1% SP; n = 3
# Experimental: (§4) Cells were then washed, and resuspended in fresh media with sample treatments for 5–7 days. Supernatants were collected on alternate days, and cells in culture were resuspended in sample or media alone. To ensure cell viability, standard trypan blue dye exclusion assays were performed. To quantify viral inhibition, the amount of p24gag was measured in cell supernatants with an ELISA (PerkinElmer, Waltham, MA, USA).
# (§5) The antiviral, metabolic, and cytotoxicity experiments were performed at least three times, and each of the assays were performed in triplicate or quadruplicate. For the TZM-bl antiviral assays the infected vehicle-only controls were averaged and set as 100% infection. For the PM1 and PBMC antiviral assays, p24 ELISA quantification established the infected vehicle-only control as 100% infection. […] Individual treatments were analyzed by either one-way ANOVA with Tukey's multiple comparisons post-test or two-tailed unpaired t-test.
# [8] = system: PBMCs; settings: 35 µg/ml with or without 1% SP; n = 3
# Experimental: as §4, §5
# [9] = system: TZM-bl cells; assay type: cell-based; settings: 24 h of treatment; peptides 35 µg/ml, SP 1%
# Experimental: as §3
# [10] = system: trypsin; experiment: trypsin diluted with sterile PBS; settings: 37°C, up to 24 h
# [11] = SP spiked with a broad spectrum protease inhibitor (PI); settings: human, 37°C, up to 24 h
# [12] = MALDI TOF/TOF MS/MS and nano-LC-MS/MS
# Chain of prostate-specific antigen (PSA) (P07288 25-261): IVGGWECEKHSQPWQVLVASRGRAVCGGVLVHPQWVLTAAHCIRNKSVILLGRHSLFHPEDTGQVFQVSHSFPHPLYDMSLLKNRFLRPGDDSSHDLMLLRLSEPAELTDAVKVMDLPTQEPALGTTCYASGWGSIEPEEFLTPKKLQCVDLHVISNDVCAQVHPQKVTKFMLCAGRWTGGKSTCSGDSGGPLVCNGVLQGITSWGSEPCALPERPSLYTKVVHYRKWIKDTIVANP
sequence,measurement,setting,value
GIHKQKEKSRLQGGVLVNEILNHMKRATQIPSYKKLIMY [PAP^286],cleavage products by MS after incubation with PSA,[1]; [12],detectable cleavage products
same,degradation by PSA,"[1]; PAP^286 54 µM (250 µg/ml), PSA 1 µM in PBS, 300 rpm, 24 h, 37°C, Tricine-SDS gel, silver stain",degradation of the PAP peptide with visible cleavage products
same,PSA concentration giving complete degradation,"[1]; PAP^286 54 µM, PSA 1.5 µM–[…], 300 rpm, 24 h, 37°C, Tricine-SDS gel, silver stain",0.75 µM
same,cleavage products by MS after incubation with trypsin,[2]; [12],detectable cleavage products
same,degradation by trypsin (positive control),"[2]; PAP^286 54 µM, trypsin 1 µM in PBS, 300 rpm, 24 h, 37°C, Tricine-SDS gel, silver stain","completely degraded the peptide, with no cleavage products visualized"
same,cleavage products by MS after incubation with matriptase,[3]; [12],detectable cleavage products
same,degradation by matriptase,"[3]; PAP^286 54 µM, matriptase 1 µM in PBS, 300 rpm, 24 h, 37°C, Tricine-SDS gel, silver stain",degradation of the PAP peptide with visible cleavage products
same,cleavage products by MS after incubation with prostasin,[4]; [12],detectable cleavage products
same,degradation by prostasin,"[4]; PAP^286 54 µM, prostasin 1 µM in PBS, 300 rpm, 24 h, 37°C, Tricine-SDS gel, silver stain",did not effectively degrade
same,stability in SP containing protease inhibitor (PI) cocktail,[5],preservation
same,time to complete degradation,[5],≤ 3 h
same,time to partial degradation,[5],≤ 1 h
GIHKQKEKSRLQGGVLVNE [PAP^266],metabolic activity of cells (MTT),[6],no significant adverse effects to metabolic activity
same,cytotoxicity (trypan blue),[7],No appreciable cytotoxicity
same,cytotoxicity (trypan blue),[8],No appreciable cytotoxicity
same,stability in SP containing protease inhibitor (PI) cocktail,[5],preservation
same,time to complete degradation,[5],≤ 3 h
same,time to partial degradation,[5],≤ 1 h
same,cytotoxicity (trypan blue),[9],lack of cytotoxicity
GIHKQKEKSRLQGGVLVNEILNHMKRATQIPSYKKLIMY,fragment found,[10],SRLQGGVLVNEILNHMKR; also recorded: ATQIPSYK; also recorded: LQGGVLV; also recorded: RATQIPS; also recorded: ATQIPS; also recorded: LQGGVL; also recorded: LQGGV
same,not cleaved,[11],preservation of the PAP peptides over time
